According to patent US20120264735A1 (priority 2009, published 2012):

What follows are molecules tested against T1, c-Met kinase (recombinant c-Met) (Homo sapiens, UniProt P08581) (assay: In vitro kinase assay I (homogeneous time-resolved fluorescence tyrosine kinase assay)).
T1 construct: 0.27 nM recombinant c-Met
Assay type: biochemical
Outline: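 Biotinylated peptide (0.5 μM) phosphorylated by 0.2 nM recombinant c-Met with 50 μM MgATP, 60 min at room temperature, pH 7.4, 5% DMSO. EDTA stop; HTRF read with Eu-anti-phosphotyrosine antibody and streptavidin-APC. IC50 from 4-parameter logistic fit.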

T1 sequence (P08581 25-1390): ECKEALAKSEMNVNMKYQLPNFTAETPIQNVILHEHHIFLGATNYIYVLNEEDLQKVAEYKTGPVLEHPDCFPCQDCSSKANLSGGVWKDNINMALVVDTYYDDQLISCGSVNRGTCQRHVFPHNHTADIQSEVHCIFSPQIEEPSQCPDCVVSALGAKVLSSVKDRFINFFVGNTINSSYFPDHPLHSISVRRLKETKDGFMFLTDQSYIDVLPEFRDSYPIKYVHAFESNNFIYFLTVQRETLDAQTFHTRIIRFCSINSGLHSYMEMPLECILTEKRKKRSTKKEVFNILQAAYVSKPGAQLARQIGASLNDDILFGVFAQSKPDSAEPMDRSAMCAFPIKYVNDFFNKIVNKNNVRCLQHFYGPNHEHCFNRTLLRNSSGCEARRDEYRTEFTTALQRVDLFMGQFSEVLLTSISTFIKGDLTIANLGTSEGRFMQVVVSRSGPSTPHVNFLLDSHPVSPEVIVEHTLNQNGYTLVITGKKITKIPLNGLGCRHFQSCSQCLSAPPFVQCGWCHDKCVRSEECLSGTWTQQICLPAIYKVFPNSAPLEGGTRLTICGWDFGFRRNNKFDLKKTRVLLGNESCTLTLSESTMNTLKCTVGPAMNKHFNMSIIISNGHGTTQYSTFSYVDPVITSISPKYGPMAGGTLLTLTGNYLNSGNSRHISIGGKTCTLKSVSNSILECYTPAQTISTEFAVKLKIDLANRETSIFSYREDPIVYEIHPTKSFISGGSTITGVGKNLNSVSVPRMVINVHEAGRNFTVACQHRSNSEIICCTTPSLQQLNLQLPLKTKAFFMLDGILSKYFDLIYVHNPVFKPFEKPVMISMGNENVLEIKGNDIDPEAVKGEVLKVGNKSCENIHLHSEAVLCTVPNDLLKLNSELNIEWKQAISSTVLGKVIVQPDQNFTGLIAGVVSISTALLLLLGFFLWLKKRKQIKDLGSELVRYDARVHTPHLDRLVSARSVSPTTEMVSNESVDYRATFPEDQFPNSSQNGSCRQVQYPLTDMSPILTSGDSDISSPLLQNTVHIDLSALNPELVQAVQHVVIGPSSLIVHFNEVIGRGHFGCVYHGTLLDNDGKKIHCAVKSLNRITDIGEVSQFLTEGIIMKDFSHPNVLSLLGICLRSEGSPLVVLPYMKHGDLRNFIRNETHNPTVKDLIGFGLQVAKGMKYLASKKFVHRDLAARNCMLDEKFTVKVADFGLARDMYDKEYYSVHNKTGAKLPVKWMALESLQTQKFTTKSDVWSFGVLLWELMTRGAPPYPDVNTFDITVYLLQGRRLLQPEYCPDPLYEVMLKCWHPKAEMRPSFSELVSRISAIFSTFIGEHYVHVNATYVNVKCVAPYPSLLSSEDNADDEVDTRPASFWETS

Row | Compound | IC50 [nM]
1 | Cn1cc(-n2ccc(=O)c(Cc3cccc(-c4noc(CC5COC5)n4)c3)n2)cn1 [Example 745, 1-(1-methyl-1H-pyrazol-4-yl)-3-{3-[5-(oxetan-3-ylmethyl)-1,2,4-oxadiazol-3-yl]benzyl}pyridazin-4(1H)-one] | 100 to 1000
2 | Cn1cc(-n2ccc(=O)c(Cc3cccc(-c4ncn(CCS(C)(=O)=O)n4)c3)n2)cn1 [Example 714, 1-(1-methyl-1H-pyrazol-4-yl)-3-(3-{1-[2-(methylsulfonyl)ethyl]-1H-1,2,4-triazol-3-yl}benzyl)pyridazin-4(1H)-one] | 100 to 1000
3 | COCCOc1cnc(-c2cccc(Cc3nn(-c4ccc(C#N)c(F)c4)ccc3=O)c2)nc1 [Example 144, 2-fluoro-4-[3-{3-[5-(2-methoxyethoxy)pyrimidin-2-yl]benzyl}-4-oxopyridazin-1(4H)-yl]benzonitrile] | < 100
4 | CC(=O)Nc1cccc(Cc2nn(-c3ccccc3)ccc2=O)c1 [Example 631, N-{3-[(4-Oxo-1-phenyl-1,4-dihydropyridazin-3-yl)methyl]phenyl}acetamide] | 1000 to 3000
5 | CCOc1cnc(-c2cc(Cc3nn(-c4cnn(C)c4)ccc3=O)ccc2F)nc1 [Example 119, 3-[3-(5-ethoxypyrimidin-2-yl)-4-fluorobenzyl]-1-(1-methyl-1H-pyrazol-4-yl)pyridazin-4(1H)-one] | 100 to 1000
6 | CCn1cc(-n2ccc(=O)c(Cc3cccc(-c4ncc(OC5CN(C(=O)OC(C)(C)C)C5)cn4)c3)n2)cn1 [Example 289, tert-butyl 3-{[2-(3-{[1-(1-ethyl-1H-pyrazol-4-yl)-4-oxo-1,4-dihydropyridazin-3-yl]methyl}phenyl)pyrimidin-5-yl]oxy}azetidine-1-carboxylate] | < 100
7 | Cn1cc(-n2ccc(=O)c(Cc3cccc(-c4ncc(C5CCOC5)cn4)c3)n2)cn1 (racemic) [compound 199, rac-1-(1-methyl-1H-pyrazol-4-yl)-3-{3-[5-(tetrahydrofuran-3-yl)pyrimidin-2-yl]benzyl} pyridazin-4(1H)-one] | < 100
8 | Cn1cc(-n2ccc(=O)c(Cc3cccc(-c4ncc(C(=O)NCC5CCOC5)cn4)c3)n2)cn1 (racemic) [Example 475, rac-2-(3-{[1-(1-methyl-1H-pyrazol-4-yl) 4-oxo-1,4-dihydro-pyridazin-3-yl]methyl}phenyl)-N-(tetrahydro-furan-3-ylmethyl)pyrimidine-5-carboxamide] | < 100
9 | O=C(Nc1cccc(Cc2nn(-c3cc(F)cc(F)c3)ccc2=O)c1)OCCCN1CCOCC1 [Example 521, 3-morpholin-4-ylpropyl (3-{[1-(3,5-difluorophenyl)-4-oxo-1,4-dihydropyridazin-3-yl]methyl}phenyl)carbamate] | < 100
10 | COCCCOc1cnc(-c2cccc(Cc3nn(-c4ccc(F)c(F)c4)ccc3=O)c2)nc1 [Example 320, 1-(3,4-difluorophenyl)-3-{3-[5-(3-methoxypropoxy)pyrimidin-2-yl]benzyl}pyridazin-4(1H)-one] | < 100
11 | Cn1cc(-n2ccc(=O)c(Cc3cccc(-c4ncc(CCCO)cn4)c3)n2)cn1 [Example 395, 3-{3-[5-(3-hydroxypropyl)pyrimidin-2-yl]benzyl}-1-(1-methyl-1H-pyrazol-4-yl)pyridazin-4(1H)-one] | < 100
12 | O=c1ccn(-c2ccc(F)c(F)c2)nc1Cc1cccc(-c2ncc(OC3CCOC3)cn2)c1 (racemic) [Example 327, rac-1-(3,4-difluorophenyl)-3-{3-[5-(tetrahydrofuran-3-yloxy)pyrimidin-2-yl]benzyl}pyridazin-4(1H)-one] | < 100
13 | CC(C)COc1cnc(-c2cccc(Cc3nn(-c4cnn(C)c4)ccc3=O)c2)nc1 [Example 261, 3-{3-[5-(2-methylpropoxy)pyrimidin-2-yl]benzyl}-1-(1-methyl-1H-pyrazol-4-yl)pyridazin-4(1H)-one] | < 100
14 | CCn1cc(-n2ccc(=O)c(C(C)c3cccc(-c4ncc(-c5cnn(C)c5)cn4)c3)n2)cn1 (single isomer, unassigned) [Example 235, 1-(1-ethyl-1H-pyrazol-4-yl)-3-[(1R or S)-1-{3-[5-(1-methyl-1H-pyrazol-4-yl)pyrimidin-2-yl]phenyl}ethyl]pyridazin-4(1H)-one] | < 100
15 | CNC(=O)c1cnc(-c2cccc(Cc3nn(-c4cnn(C)c4)ccc3=O)c2)nc1 [Example 485, N-methyl-2-(3-{[1-(1-methyl-1H-pyrazol-4-yl)-4-oxo-1,4-dihydro-pyridazin-3-yl]methyl}phenyl)pyrimidine-5-carboxamide] | < 100
16 | Cn1cc(-n2ccc(=O)c(Cc3cccc(-c4ncc(OCC5CCOCC5)cn4)c3)n2)cn1 [Example 262, 1-(1-methyl-1H-pyrazol-4-yl)-3-{3-[5-(tetrahydro-2H-pyran-4-ylmethoxy)pyrimidin-2-yl]benzyl}pyridazin-4(1H)-one] | < 100
17 | Cn1cc(-n2ccc(=O)c(Cc3cccc(-c4ncc(O)cn4)c3)n2)cn1 [Example 187, 3-[3-(5-Hydroxypyrimidin-2-yl)benzyl]-1-(1-methyl-1H-pyrazol-4-yl)pyridazin-4(1H)-one] | 100 to 1000

Other lines, results leading:

Row | IC50 [nM] | Compound
18 | 100 to 1000 | Cn1cc(-n2ccc(=O)c(Cc3cccc(N4CCCC4=O)c3)n2)cn1 [Example 636, 1-(1-Methyl-1H-pyrazol-4-yl)-3-[3-(2-oxopyrrolidin-1-yl)benzyl]pyridazin-4(1H)-one]
19 | < 100 | O=C(Nc1cccc(Cc2nn(-c3cc(F)c(F)c(F)c3)ccc2=O)c1)OCCn1ccnc1 [Example 547, 2-(1H-imidazol-1-yl)ethyl (3-{[4-oxo-1-(3,4,5-trifluorophenyl)-1,4-dihydropyridazin-3-yl]methyl}phenyl)carbamate]
20 | < 100 | CN(C)C(=O)CCOC(=O)Nc1cccc(Cc2nn(-c3cnn(C)c3)ccc2=O)c1 [Example 545, 3-(dimethylamino)-3-oxopropyl (3-{[1-(1-methyl-1H-pyrazol-4-yl)-4-oxo-1,4-dihydropyridazin-3-yl]methyl}phenyl)carbamate]
21 | < 100 | Cn1cc(-n2ccc(=O)c(Cc3cccc(NC(=O)OCC4CCC4)c3)n2)cn1 [Example 538, cyclobutylmethyl (3-{[1-(1-methyl-1H-pyrazol-4-yl)-4-oxo-1,4-dihydropyridazin-3-yl]methyl}phenyl)carbamate]
22 | < 100 | O=C(Nc1cccc(Cc2nn(-c3cc(F)cc(F)c3)ccc2=O)c1)OCCCN1CCS(=O)(=O)CC1 [Example 522, 3-(1,1-dioxidothio-morpholin-4-yl)propyl (3-{[1-(3,5-difluorophenyl)-4-oxo-1,4-dihydropyridazin-3-yl]methyl}phenyl)carbamate]
23 | < 100 | CCc1cnc(-c2cccc(C(C)c3nn(-c4cnn(C)c4)ccc3=O)c2)nc1 (single isomer, unassigned) [Example 237, 3-{(1R or S)-1-[3-(5-ethylpyrimidin-2-yl)phenyl]ethyl}-1-(1-methyl-1H-pyrazol-4-yl)pyridazin-4(1H)-one]
24 | < 100 | CCOc1cnc(-c2cccc(C(C)c3nn(-c4cccc(C#N)c4)ccc3=O)c2)nc1 (racemic) [Example 224, rac-3-[3-{1-[3-(5-ethoxypyrimidin-2-yl)phenyl]ethyl}-4-oxopyridazin-1(4H)-yl]benzonitrile]
25 | < 100 | CCOC(=O)Nc1cccc(Cc2nn(-c3ccc(OC)nc3)ccc2=O)c1 [Example 31, ethyl (3-{[1-(6-methoxypyridin-3-yl)-4-oxo-1,4-dihydropyridazin-3-yl]methyl}phenyl)carbamate]
26 | < 100 | CCOc1cnc(-c2cccc(Cc3nn(-c4ccc(C#N)cc4)ccc3=O)c2)nc1 [Example 137, 4-{3-[3-(5-ethoxypyrimidin-2-yl)benzyl]-4-oxopyridazin-1(4H)-yl}benzonitrile]
27 | 100 to 1000 | CCOc1cnc(-c2cccc(C(F)c3nn(-c4cnn(C)c4)ccc3=O)c2)nc1 (single isomer, unassigned) [Example 655, 3-[(S or R)-[3-(5-ethoxypyrimidin-2-yl)phenyl](fluoro)methyl]-1-(1-methyl-1H-pyrazol-4-yl)pyridazin-4(1H)-one]
28 | < 100 | COc1ccc(CNC(=O)Nc2cccc(Cc3nn(-c4cnn(C)c4)ccc3=O)c2)cc1 [Example 495, 1-(4-methoxybenzyl)-3-(3-{[1-(1-methyl-1H-pyrazol-4-yl)-4-oxo-1,4-dihydropyridazin-3-yl]methyl}phenyl)urea]
29 | < 100 | Cn1cc(-n2ccc(=O)c(Cc3cccc(-c4ncc(-c5ccc(N)nc5)cn4)c3)n2)cn1 [Example 419, 3-{3-[5-(6-aminopyridin-3-yl)pyrimidin-2-yl]benzyl}-1-(1-methyl-1H-pyrazol-4-yl)pyridazin-4(1H)-one]
30 | < 100 | CCOCCOc1cnc(-c2cccc(Cc3nn(-c4cc(F)c(F)c(F)c4)ccc3=O)c2)nc1 [Example 325, 3-{3-[5-(2-ethoxyethoxy)pyrimidin-2-yl]benzyl}-1-(3,4,5-trifluorophenyl)pyridazin-4(1H)-one]
31 | < 100 | Cn1cc(-n2ccc(=O)c(Cc3cccc(-c4ncc(N5CCC(O)C5)cn4)c3)n2)cn1 (racemic) [Example 440, rac-3-{3-[5-(3-Hydroxypyrrolidin-1-yl)pyrimidin-2-yl]benzyl}-1-(1-methy 1H-pyrazol-4-yl)pyridazin-4(1H)-one]
32 | < 100 | Cn1cc(-n2ccc(=O)c(Cc3cccc(NC(=O)OCCn4ccnc4)c3)n2)cn1 [Example 510, 2-(1H-Imidazol-1-yl)ethyl(3-{[1-(1-methyl-1H-pyrazol-4-yl)-4-oxo-1,4-dihydropyridazin-3-yl]methyl}phenyl)carbamate]
33 | < 100 | CCn1cc(-n2ccc(=O)c(C(C)c3cccc(-c4ncc(OC5CNC5)cn4)c3)n2)cn1 (single isomer, unassigned) [Example 340, 3-((1R or S)-1-{3-[5-(azetidin-3-yloxy)pyrimidin-2-yl]phenyl}ethyl)-1-(1-ethyl-1H-pyrazol-4-yl)pyridazin-4(1H)-one]
34 | < 100 | CCCOC(=O)Nc1cccc(Cc2nn(-c3cc(F)c(F)c(F)c3)ccc2=O)c1 [Example 8, propyl (3-{[4-oxo-1-(3,4,5-trifluorophenyl)-1,4-dihydropyridazin-3-yl]methyl}phenyl)carbamate]
